Legend:
[1] = tested on: epichaperome +ve (MDA-MB-468) tumors; experiment: Small-animal PET, xenografted tumors; assay type: in vivo, mouse; conditions: 48 h post-injection
Method: (§1) We opted for the use of xenografted MDA-MB-468 and ASPC1 tumors in mice (target-positive versus target-negative, respectively, with equal total HSP90 levels, Fig. 3b). Because PU-HZ151 rapidly distributes throughout the body (see Fig. 2a and further below), and taking in consideration the high concentration of chaperones in cells (>100 µM)[41], a bolus injection creates a rapid equilibrium mixture state. Subsequent to reaching an ‘equilibrium’ state throughout the body, PU-HZ151 then rapidly clears from plasma, which initiates a body-wide dilution state. Recording the differential concentration-time curves for PU-HZ151 in the two tumor types offers the relative dissociation rate constants, but most importantly, informs on probe’s epichaperome selectivity (Fig. 3a).
(§2) For subcutaneous xenografts, mice were anesthetized with 2% isoflurane (Baxter Healthcare) (2 l min^−1 medical air). […]
(§3) Orthotopic GBM xenografts in mice were established by injection of 5 × 10^5 cells in 2 μL PBS. […] PET data for each mouse was recorded using static scans of 15 min and acquired at the indicated times post injection. Quantification and %ID g^−1 values were calculated by manually drawing regions of interests in three different frames and determining the average values using ASI Pro VM™ MicroPET Analysis software (Siemens Medical Solutions, Knoxville, TX).

[2] = tested on: epichaperome -ve (ASPC1) tumors; experiment: Small-animal PET, xenografted tumors; assay type: in vivo, mouse; conditions: 48 h post-injection
Method: as §1, §2, §3

CYP2D6 = target: T1, CYP2D6 (Homo sapiens, UniProt P10635); experiment: Cytochrome P450 profiling, quinidine; assay type: in vitro ADME; conditions: for % PU-HZ151 remaining: Quinidine
T1 construct: tissue Life Technologies HMMCPL; host or cells: human liver microsomes
Method: (§4) To identify cytochrome P450 enzymes responsible for PU-HZ151’s metabolism in human liver microsomes the following procedure was followed. Phosphate buffer (100 mM, pH 7.4) was prepared monthly and stored at 4 °C. Frozen stock solutions of human liver microsomes (Life Technologies; Cat# HMMCPL) were used once after thawing and were not refrozen. NADPH stock solution (50 mM) in distilled water was prepared fresh daily. […] The stock solutions of these P450 inhibitors were prepared in DMSO. […] The concentration of the chemical inhibitors used in the assay were furafylline (10 μM), tranylcypromine (2 μM), ketoconazole (1 μM), troleandomycin (20 μM), orphenadrine (50 μM), montelukast (3 μM), sulfaphenazole (10 μM), benzylnirvanol (1 μM), quinidine (1 μM), and 1-aminobenzotriazole (1 mM) for all the P450 enzymes. Timing of the reactions was started following the addition of NADPH/magnesium chloride mix and PU-HZ151. Time-dependent chemical inhibitors (furafylline, troleandomycin, orphenadrine, and 1-aminobenzotriazole) were preincubated with human microsomes in the presence of NADPH and magnesium chloride for 15 min before the addition of PU-HZ151 and timing of reactions was started after addition of PU-HZ151. […] Following brief vortexing and centrifugation, a 200 µL aliquot of the supernatant was transferred to a tube, and 10 µL of haloperidol (1 µg mL^−1) as internal standard was added. Following brief vortexing and centrifugation, 50 µL of supernatant was added to a 96-well plate for subsequent LC-MS/MS analysis. PU-HZ151 was similarly tested as above in the absence of CYP inhibitors for comparative purposes. All samples were assayed in duplicate. […] This was similarly performed for incubations of PU-HZ151 performed in the absence of CYP inhibitor.

CYP2C19 = target: T2, CYP2C19 (Homo sapiens, UniProt P33261); experiment: Cytochrome P450 profiling, benzylnirvanol; assay type: in vitro ADME; conditions: for % PU-HZ151 remaining: Benzylnirvanol
T2 construct: PU-HZ151 (1 µM) was incubated with human liver microsomes (0.5 mg protein mL^−1); tissue Life Technologies HMMCPL; host or cells: human liver microsomes
Method: as §4

T1 sequence (P10635 whole entry): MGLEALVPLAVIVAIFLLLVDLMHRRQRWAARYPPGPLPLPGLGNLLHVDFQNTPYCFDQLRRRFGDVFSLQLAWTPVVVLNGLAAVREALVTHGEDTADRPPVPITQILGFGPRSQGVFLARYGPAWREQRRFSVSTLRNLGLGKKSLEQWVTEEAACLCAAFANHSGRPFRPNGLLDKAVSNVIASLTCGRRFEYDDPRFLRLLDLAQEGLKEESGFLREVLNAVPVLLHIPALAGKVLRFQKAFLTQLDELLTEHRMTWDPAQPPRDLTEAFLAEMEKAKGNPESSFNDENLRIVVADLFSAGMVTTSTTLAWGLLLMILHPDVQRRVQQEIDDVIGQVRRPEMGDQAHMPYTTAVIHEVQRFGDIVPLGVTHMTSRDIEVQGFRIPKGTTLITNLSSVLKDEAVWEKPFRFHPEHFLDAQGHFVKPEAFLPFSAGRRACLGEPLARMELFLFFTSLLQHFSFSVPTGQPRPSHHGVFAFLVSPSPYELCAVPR
T2 sequence (P33261 whole entry): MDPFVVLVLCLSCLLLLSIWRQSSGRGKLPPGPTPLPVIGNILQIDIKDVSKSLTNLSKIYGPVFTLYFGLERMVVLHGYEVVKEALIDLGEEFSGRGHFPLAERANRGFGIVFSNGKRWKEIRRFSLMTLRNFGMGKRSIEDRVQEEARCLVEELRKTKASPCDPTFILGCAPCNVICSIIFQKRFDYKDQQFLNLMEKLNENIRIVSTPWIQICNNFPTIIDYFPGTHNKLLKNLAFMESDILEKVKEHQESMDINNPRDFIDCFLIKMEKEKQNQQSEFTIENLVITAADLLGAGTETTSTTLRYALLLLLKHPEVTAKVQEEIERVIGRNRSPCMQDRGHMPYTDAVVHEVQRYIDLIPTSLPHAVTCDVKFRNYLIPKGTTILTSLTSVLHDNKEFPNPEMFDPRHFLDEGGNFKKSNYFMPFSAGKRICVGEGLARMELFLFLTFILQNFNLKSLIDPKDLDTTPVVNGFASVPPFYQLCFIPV

Q: For CC(C)(C)CNCCn1c(Sc2cc3c(cc2I)OCO3)nc2c(N)ncnc21 [Compound 85], which “tumor retention by PET” value [1] is on record?
A: clear retention and visualization of MDA-MB-468 tumors even at 48 h post-injection

Q: What about the “tumor retention by PET” value [2] of the same molecule?
A: no signal was noted in ASPC1 tumors

Q: And the “% PU-HZ151 remaining” value (CYP2D6; 15 min)?
A: 62.9%

Q: What about the “% PU-HZ151 remaining” value (CYP2D6; 30 min) of the same molecule?
A: 43.9%

Q: And the “% PU-HZ151 remaining” value (CYP2D6; 60 min)?
A: 26.6%

Q: And the “inhibition of PU-HZ151 metabolism” value (CYP2D6; quinidine)?
A: 11%

Q: What about the “% PU-HZ151 remaining” value (CYP2C19; 15 min) of the same molecule?
A: 59.2%

Q: And the “% PU-HZ151 remaining” value (CYP2C19; 30 min)?
A: 39.3%

Q: And the “% PU-HZ151 remaining” value (CYP2C19; 60 min)?
A: 20.2%

Q: And the “inhibition of PU-HZ151 metabolism” value (CYP2C19; benzylnirvanol)?
A: 4%
